According to ChEMBL document CHEMBL1201862, “PubChem BioAssay data set” (2004):
The source made the active and inactive calls.

Tests used:
Cytochrome P450 2C9 = Cytochrome P450 2C9 (Homo sapiens, UniProt P11712)
Cytochrome P450 1A2 = target: T1, Cytochrome P450 1A2 (Homo sapiens, UniProt P05177);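 also: PubChem cytochrome P450 panel assay, CYP1A2 panel member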
T1 sequence (P05177 whole entry): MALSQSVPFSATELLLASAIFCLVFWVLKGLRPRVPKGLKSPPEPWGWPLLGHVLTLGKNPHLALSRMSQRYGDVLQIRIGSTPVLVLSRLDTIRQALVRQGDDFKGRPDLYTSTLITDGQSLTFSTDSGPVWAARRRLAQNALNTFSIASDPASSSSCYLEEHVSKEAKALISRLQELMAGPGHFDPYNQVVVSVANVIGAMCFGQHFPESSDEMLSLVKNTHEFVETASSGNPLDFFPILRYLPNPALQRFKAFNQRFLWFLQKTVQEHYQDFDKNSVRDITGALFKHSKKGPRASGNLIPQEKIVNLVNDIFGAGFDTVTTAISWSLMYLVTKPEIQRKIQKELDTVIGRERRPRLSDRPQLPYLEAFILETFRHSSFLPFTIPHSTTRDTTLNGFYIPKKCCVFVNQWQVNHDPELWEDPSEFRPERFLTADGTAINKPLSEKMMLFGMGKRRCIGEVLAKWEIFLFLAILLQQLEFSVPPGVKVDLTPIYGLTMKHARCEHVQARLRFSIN

[1] = P. falciparum Dd2 growth inhibitors, dose response, SYBR Green, cherry-picked samples (AID 1159567); format: functional, cell-based
[2] = target: T2, RNA-binding protein pos-1 (Caenorhabditis elegans, UniProt G5EF15); assay: inhibitors of POS-1/mex-3 RNA binding, dose response, biochemical, fluorescence polarization (AID 1964);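 also: purified POS-1 fused to maltose binding protein made in E. coli; potency of compounds blocking POS-1 binding to fluorescent RNA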
T2 sequence (G5EF15 whole entry): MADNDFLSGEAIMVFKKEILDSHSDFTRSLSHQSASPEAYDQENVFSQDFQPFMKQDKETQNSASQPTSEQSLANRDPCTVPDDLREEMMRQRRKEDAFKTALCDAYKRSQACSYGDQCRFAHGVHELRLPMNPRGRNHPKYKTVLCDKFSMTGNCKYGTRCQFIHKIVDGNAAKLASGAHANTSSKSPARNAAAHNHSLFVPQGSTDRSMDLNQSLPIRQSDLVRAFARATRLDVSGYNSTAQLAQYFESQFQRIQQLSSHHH

[3] = target: T3, Zinc finger protein mex-5 (Caenorhabditis elegans, UniProt Q9XUB2); assay: MEX-5/TCR-2 RNA interaction inhibitors, dose response, biochemical, C. elegans, fluorescence polarization (AID 1960)
T3 sequence (Q9XUB2 whole entry): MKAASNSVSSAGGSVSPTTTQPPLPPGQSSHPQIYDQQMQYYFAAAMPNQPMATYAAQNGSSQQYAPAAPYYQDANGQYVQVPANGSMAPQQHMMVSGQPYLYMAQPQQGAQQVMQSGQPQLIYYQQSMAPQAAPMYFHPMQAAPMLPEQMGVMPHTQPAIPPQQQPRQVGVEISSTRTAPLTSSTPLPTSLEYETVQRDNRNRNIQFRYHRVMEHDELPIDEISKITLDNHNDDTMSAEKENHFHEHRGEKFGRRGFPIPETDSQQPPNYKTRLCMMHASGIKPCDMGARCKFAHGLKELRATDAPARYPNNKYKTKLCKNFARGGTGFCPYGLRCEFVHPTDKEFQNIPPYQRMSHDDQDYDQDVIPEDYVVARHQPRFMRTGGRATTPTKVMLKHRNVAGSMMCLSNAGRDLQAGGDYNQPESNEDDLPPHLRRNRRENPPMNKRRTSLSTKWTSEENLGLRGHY

[4] = target: T4, Replicative DNA helicase DnaB (Mycobacterium tuberculosis, UniProt P9WMR3); assay: DnaB intein splicing inhibitors, dose response, biochemical, cell-free fluorescence (AID 449749); format: functional
T4 sequence (P9WMR3 whole entry): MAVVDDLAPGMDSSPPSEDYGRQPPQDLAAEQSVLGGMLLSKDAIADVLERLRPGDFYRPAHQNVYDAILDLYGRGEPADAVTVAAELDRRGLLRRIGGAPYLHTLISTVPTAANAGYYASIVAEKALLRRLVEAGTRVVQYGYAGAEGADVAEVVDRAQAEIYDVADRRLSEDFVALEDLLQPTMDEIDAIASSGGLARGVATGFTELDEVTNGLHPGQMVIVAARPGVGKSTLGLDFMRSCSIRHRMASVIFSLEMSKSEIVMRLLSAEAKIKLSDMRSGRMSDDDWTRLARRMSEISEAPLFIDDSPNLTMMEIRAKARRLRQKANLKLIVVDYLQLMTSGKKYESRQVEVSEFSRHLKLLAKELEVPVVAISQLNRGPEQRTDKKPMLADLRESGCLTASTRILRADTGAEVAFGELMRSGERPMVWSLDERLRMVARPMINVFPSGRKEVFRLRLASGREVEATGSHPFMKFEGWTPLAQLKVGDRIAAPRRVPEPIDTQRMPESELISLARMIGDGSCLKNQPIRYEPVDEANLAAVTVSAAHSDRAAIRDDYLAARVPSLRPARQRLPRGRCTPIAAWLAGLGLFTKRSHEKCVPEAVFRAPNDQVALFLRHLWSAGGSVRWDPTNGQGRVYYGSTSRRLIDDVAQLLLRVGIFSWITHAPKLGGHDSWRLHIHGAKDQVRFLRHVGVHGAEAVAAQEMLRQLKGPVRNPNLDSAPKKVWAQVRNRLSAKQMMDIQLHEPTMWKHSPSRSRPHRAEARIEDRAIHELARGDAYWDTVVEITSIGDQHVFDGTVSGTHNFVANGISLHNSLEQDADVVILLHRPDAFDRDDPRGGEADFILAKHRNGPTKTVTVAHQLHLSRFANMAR

Protein RecA = target: T5, Protein RecA (Mycobacterium tuberculosis, UniProt P9WHJ3); assay: Fluorescence Cell-Free Homogeneous Dose Retest to Identify Inhibitors of RecA-Intein Splicing Activity. [Related pubchem assays (depositor defined):AID2097, AID2223, AID489010, AID492950]; format: functional
T5 sequence (P9WHJ3 whole entry): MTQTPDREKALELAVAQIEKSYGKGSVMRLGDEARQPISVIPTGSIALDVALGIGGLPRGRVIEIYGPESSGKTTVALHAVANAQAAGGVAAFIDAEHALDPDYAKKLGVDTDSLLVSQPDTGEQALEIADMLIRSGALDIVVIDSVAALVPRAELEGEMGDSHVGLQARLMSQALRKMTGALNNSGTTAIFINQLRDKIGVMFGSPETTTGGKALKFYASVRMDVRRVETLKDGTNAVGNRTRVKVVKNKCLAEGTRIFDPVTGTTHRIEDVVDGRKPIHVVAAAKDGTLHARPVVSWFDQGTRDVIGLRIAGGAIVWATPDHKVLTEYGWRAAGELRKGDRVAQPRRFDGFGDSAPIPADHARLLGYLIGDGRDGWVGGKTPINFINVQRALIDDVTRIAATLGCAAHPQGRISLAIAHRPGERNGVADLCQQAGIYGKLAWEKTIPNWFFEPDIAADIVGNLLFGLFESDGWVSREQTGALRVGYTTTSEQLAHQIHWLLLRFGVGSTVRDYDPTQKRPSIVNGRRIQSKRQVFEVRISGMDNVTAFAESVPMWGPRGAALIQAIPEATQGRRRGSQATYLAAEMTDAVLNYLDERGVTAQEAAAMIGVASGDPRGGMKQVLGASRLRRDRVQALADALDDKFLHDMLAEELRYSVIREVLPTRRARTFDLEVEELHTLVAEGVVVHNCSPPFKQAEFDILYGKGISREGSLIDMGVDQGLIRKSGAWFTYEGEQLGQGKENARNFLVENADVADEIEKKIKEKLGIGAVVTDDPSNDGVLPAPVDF

[5] = growth suppression of PTEN-null colon cells, dose response, cell-based, HCT116 PTEN knockout (AID 1047); format: functional;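 also: HCT116 colon tumor cells with PTEN knocked out; cells exposed to compound for 60 hours before readout; potency for loss of cell viability measured by luminescence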
[6] = growth suppression of beta-catenin-knockout colon cells, dose response, cell-based, HCT116, human colon tumor (AID 1045); format: functional;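 also: HCT116 colon tumor cells with beta catenin knocked out; cells exposed to compound for 60 hours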
[7] = cytotoxicity toward NIH3T3 fibroblasts, dose response, counter-screen, cell-based, ATP luminescence, mouse fibroblasts (AID 2010); format: functional;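 also: cells exposed to compound for about 90 hours before reading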
[8] = inhibitors of intracellular T. cruzi replication, confirmation, NIH3T3 host cells, beta-gal luminescence (AID 2044); format: functional, cell-based;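 also: intracellular parasites grown in NIH/3T3 mouse fibroblasts as host cells; luminescent beta-galactosidase reporter signal from transgenic T. cruzi replicating inside host cells; inhibitors lower the luminescence signal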

Chain of Cytochrome P450 2C9 (P11712 whole entry): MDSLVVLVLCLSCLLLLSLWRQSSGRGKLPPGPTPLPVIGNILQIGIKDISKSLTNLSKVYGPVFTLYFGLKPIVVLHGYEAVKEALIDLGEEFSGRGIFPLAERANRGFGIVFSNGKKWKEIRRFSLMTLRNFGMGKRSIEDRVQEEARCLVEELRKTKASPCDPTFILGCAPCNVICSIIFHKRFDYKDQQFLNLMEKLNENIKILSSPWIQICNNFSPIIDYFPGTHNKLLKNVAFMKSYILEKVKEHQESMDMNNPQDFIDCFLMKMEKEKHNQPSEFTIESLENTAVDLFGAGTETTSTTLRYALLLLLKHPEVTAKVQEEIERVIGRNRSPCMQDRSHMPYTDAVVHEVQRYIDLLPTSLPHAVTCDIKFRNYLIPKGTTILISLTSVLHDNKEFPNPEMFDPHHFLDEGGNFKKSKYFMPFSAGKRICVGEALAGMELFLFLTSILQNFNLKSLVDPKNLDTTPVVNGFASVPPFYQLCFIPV

CCOc1ccccc1NC(=O)C1Cc2ccccc2CN1S(C)(=O)=O (stereo not drawn)
AC50 (Cytochrome P450 2C9): inconclusive | AC50 (Cytochrome P450 1A2): 39.8 µM (inconclusive)

C/C=C/c1ccc2n(c1=O)C[C@@H]1[C@@H](CO)[C@H](C(=O)N3CCC(Cc4ccccc4)CC3)N(CCC)[C@H]21.C/C=C\c1ccc2n(c1=O)C[C@@H]1[C@@H](CO)[C@H](C(=O)N3CCC(Cc4ccccc4)CC3)N(CCC)[C@H]21
AC50 [1]: 4.32 µM (active)

COc1ccc(S(=O)(=O)C(C#N)c2nc3ccccc3nc2N2CCC(C)CC2)cc1 (stereo not drawn)
EC50 [2]: 6.4 µM (active) | EC50 [3]: 8.74 µM (active)

N#C/C(=C/c1ccc(CNS(=O)(=O)c2ccccc2)o1)C(=O)NCc1ccccc1
EC50 [2]: > 300 µM (not active) | EC50 [3]: > 300 µM (not active)

O=C(c1c[nH]c(C(=O)C(Cl)(Cl)Cl)c1)c1ccccc1Cl
AC50 [4]: 7.85 µM (active) | EC50 (Protein RecA): 6.27 µM (active) | EC50 [5]: 26.5 µM (active) | EC50 [6]: 24.9 µM (active)

Cc1cccn2c(=O)c3cc(C(=O)NC4CCCCC4)c(=N)n(Cc4ccccc4)c3nc12
EC50 [7]: > 60 µM (not active) | EC50 [8]: 1.63 µM (active) | EC50 [2]: 25.9 µM (active) | EC50 [3]: 8.47 µM (active)

COc1ccc2c3c([nH]c2c1)[C@@H](CO)N(Cc1nccs1)CC31CCN(Cc2nccs2)CC1
AC50 [1]: 4.94 µM (active)

O=C(CCC(=O)CCN1CCCCC1)CCN1CCCCC1
EC50 [5]: 33.1 µM (active) | EC50 [6]: 32.6 µM (active)
